# Source: patent US10392412B2, “Platinum anticancer agents” (THE REGENTS OF THE UNIVERSITY OF CALIFORNIA, priority 2015, dated 2019)
# Marks after values point to notes of the source that are not given here.
# Experiments:
# [1] = Maximum tolerated dose study: blood chemistry test (Table 7)
# Protocol: The mice used in MTD were given standard chow devoid of added folic acid (low folate diet) (See, Leamon C P et al., J. Pharmacol. Exp. Ther. 327: 918-925). […] Therefore we also designed a MTD study in mice treated with low folate diet. Food consumption on the day before injection (Day −1) was recorded and then it was monitored every other day. […] Blood for clinical chemistry was collected if possible. Liver, kidney and bone marrow were collected. One side of each tissue (except bone marrow) will be fixed in 4-10% formalin for future histology analysis, and the rest of tissue will be cut into pieces, snap frozen, and stored at −80° C. until analysis. Blood samples for clinical chemistry were centrifuged at 8000 rpm for 10 min at 4° C. within 1 hour of collection. Plasma was collected into 1.5 mL eppendorf tubes and stored at −80° C. until analysis. The measured parameters were alanine transaminase (ALT), aspartate transaminase (AST), alkaline phosphatase (ALP), total bilirubin, glucose, blood urea nitrogen (BUN), creatinine, and electrolytes. All experiments were housed in a virus-free, temperature controlled facility on a 12-h light-dark cycle.
# CAKL-1 cells = conditions: CAKL-1, Renal
# Source text: (§1) The methods that were used by the DTP were described on the DTP website: (https://dtp.nci.nih.gov/discovery_development/nci-60/methodology.htm).
# NCI-H23 cells = conditions: NCI-H23, Non-Small Cell Lung
# Source text: as §1
# SNB-19 cells = conditions: SNB-19, Central Nervous System
# Source text: as §1
# SNB-75 cells = conditions: SNB-75, Central Nervous System
# Source text: as §1
# 786-0 cells = conditions: 786-0, Renal
# Source text: as §1
# MDA-MB-435 cells = conditions: MDA-MB-435, Melanoma
# Source text: as §1
# COLO 205 cells = conditions: COLO 205, Colon
# Source text: as §1
# OVCAR-3 cells = conditions: OVCAR-3, Ovarian
# Source text: as §1
# DU-145 cells = conditions: DU-145, Prostate
# Source text: as §1
# LOX IMVI cells = conditions: Melanoma
# Source text: as §1
# OVCAR-4 cells = conditions: OVCAR-4, Ovarian
# Source text: as §1
# MOLT-4 cells = conditions: MOLT-4, Leukemia
# Source text: as §1
# SN12C cells = conditions: Renal
# Source text: as §1
# SR cells = conditions: Leukemia
# Source text: as §1
# HCT-15 cells = conditions: HCT-15, Colon
# Source text: as §1
# HT29 cells = conditions: HT29, Colon
# Source text: as §1
# HCT-116 cells = conditions: HCT-116, Colon
# Source text: as §1
# U251 cells = conditions: U251, Central Nervous System
# Source text: as §1
# PC-3 cells = conditions: PC-3, Prostate
# Source text: as §1
# SF-295 cells = conditions: SF-295, Central Nervous System
# Source text: as §1
# MDA-MB-231/ATCC cells = conditions: Breast
# Source text: as §1
# NCI-H226 cells = conditions: NCI-H226, Non-Small Cell Lung
# Source text: as §1
# MDA-MB-468 cells = conditions: MDA-MB-468, Breast
# Source text: as §1
# HL-60(TB) cells = conditions: Leukemia
# [2] = Lethality in C57BL/6 mice, i.v. once a week
# Source text: The concentration versus time course of total platinum followed a two-compartment model in the mice. […] In the maximum tolerated dose studies, we observed body weight reduction in all mice due to the low folate diet (FIG. 6).
# [3] = 7.5 mpk i.v. once a week, listed as AT-69
substance,measurement,setting,value
[Pt(DMSO)methotrexate(Cl)] [SM-69],Glucose,[1]; 2.5 mpk i.v. once a week,80.25
same,Na:K,[1]; 2.5 mpk i.v. once a week,33.50
same,"alanine transaminase, ALT (GPT)",[1]; 2.5 mpk i.v. once a week,52.75
same,alkaline phosphatase (ALP),[1]; 2.5 mpk i.v. once a week,99.00
same,"aspartate transaminase, AST (GOT)",[1]; 2.5 mpk i.v. once a week,252.25
same,blood urea nitrogen (BUN),[1]; 2.5 mpk i.v. once a week,41.73
same,creatinine (CRE),[1]; 2.5 mpk i.v. once a week,<0.2
same,total bilirubin (TBIL),[1]; 2.5 mpk i.v. once a week,0.15
same,Glucose,[1]; 5 mpk i.v. once a week,73.00
same,Na:K,[1]; 5 mpk i.v. once a week,33.25
same,"alanine transaminase, ALT (GPT)",[1]; 5 mpk i.v. once a week,83.75
same,alkaline phosphatase (ALP),[1]; 5 mpk i.v. once a week,117.25
same,"aspartate transaminase, AST (GOT)",[1]; 5 mpk i.v. once a week,447.25
same,blood urea nitrogen (BUN),[1]; 5 mpk i.v. once a week,65.63
same,creatinine (CRE),[1]; 5 mpk i.v. once a week,<0.2
same,total bilirubin (TBIL),[1]; 5 mpk i.v. once a week,0.53
same,Glucose,[1]; 7.5 mpk i.v. once a week,40.67*
same,Na:K,[1]; 7.5 mpk i.v. once a week,31.67
same,"alanine transaminase, ALT (GPT)",[1]; 7.5 mpk i.v. once a week,258.33*
same,alkaline phosphatase (ALP),[1]; 7.5 mpk i.v. once a week,140.33*
same,"aspartate transaminase, AST (GOT)",[1]; 7.5 mpk i.v. once a week,573.67
same,blood urea nitrogen (BUN),[1]; 7.5 mpk i.v. once a week,did not observe a significant difference
same,creatinine (CRE),[1]; 7.5 mpk i.v. once a week,did not observe a significant difference
same,total bilirubin (TBIL),[1]; 7.5 mpk i.v. once a week,0.40
same,blood urea nitrogen (BUN),[1]; [3],65.40
same,creatinine (CRE),[1]; [3],<0.2
same,Log10GI50,CAKL-1 cells,−5.23 M
same,Log10GI50,NCI-H23 cells,−4.45 M
same,Log10GI50,SNB-19 cells,−4.00 M
same,Log10GI50,SNB-75 cells,−4.39 M
same,Log10GI50,786-0 cells,−5.46 M
same,Log10GI50,MDA-MB-435 cells,−5.36 M
same,Log10GI50,COLO 205 cells,−4.34 M
same,Log10GI50,OVCAR-3 cells,−4.15 M
same,Log10GI50,DU-145 cells,−5.18 M
same,Log10GI50,LOX IMVI cells,−5.77 M
same,Log10GI50,OVCAR-4 cells,−4.00 M
same,Log10GI50,MOLT-4 cells,−5.30 M
same,Log10GI50,SN12C cells,−5.29 M
same,Log10GI50,SR cells,−5.52 M
same,Log10GI50,HCT-15 cells,−5.04 M
same,Log10GI50,HT29 cells,−5.25 M
same,Log10GI50,HCT-116 cells,−5.50 M
same,Log10GI50,U251 cells,−5.43 M
same,Log10GI50,PC-3 cells,−5.35 M
same,Log10GI50,SF-295 cells,−5.46 M
same,Log10GI50,MDA-MB-231/ATCC cells,−4.00 M
same,Log10GI50,NCI-H226 cells,−4.61 M
same,Log10GI50,MDA-MB-468 cells,−5.08 M
same,Log10GI50,HL-60(TB) cells,−5.46 M
same,lethality,[2]; 5 mg/kg i.v. once a week,not
same,lethality,[2]; 10 mg/kg i.v. once a week,lethal
